Like-named read-outs stand apart in the source and are kept apart here. Peptide text beside a SMILES is read from it. * marks the point of attachment. Cbz = O=C(OCc1ccccc1)*
Legend:
HBB locus = experiment: Gene editing at the HBB locus in cord blood CD34+ HSCs (T7E1, DNA sequencing); assay type: cell-based, human; conditions: CB CD34+, enhancer 18 hours before and 3 days after electroporation with D10A Cas9 RNP, HBB-8/HBB-15, Phx ssODN, UM171 35 nM, UM171/SR-1 35/40 nM, rapamycin 5 nM, OxPAPC 30 μg/mL, bafilomycin A1 1 μM, MG132 0.5 μM
Excerpt: Human CD34^+ HSCs cells were isolated from freshly obtained human umbilical cord blood by ficoll gradient density centrifugation followed by MACS® (antibody conjugated immunomagnetic bead sorting) with mouse anti-human CD34^+ immunomagnetic beads using the human CD34 cell enrichment kit and LS magnetic columns from Miltenyi Biotech. […] In the afternoon of day 3, 2.5 million CD34^+ cells per sample were suspended in electroporation buffer.
In vitro transcribed capped and tailed guide gRNAs HBB-8 and HBB-15 were added at a 2:1 molar ratio (total gRNA:Cas9 protein) to 12.5 μg D10A nickase ribonucleoprotein (RNP) (5 μg RNP per million cells) to each of two samples each containing 2.5 million CB CD34^+ cells. A third CB CD34^+ cell aliquot was mixed with 25 μg D10A nickase RNP and HBB gRNAs (total gRNA:D10A ratio at 2:1).
For all samples, the cells were collected from the cartridge and placed at 37° C. for 20 minutes (recovery period). For the CB CD34^+ HSCs that were contacted with 12.5 μg D10A nickase RNP, one sample was transferred to pre-warmed cytokine supplemented Stemspan-SFEM™ media and placed at 30° C. for 2 hours (cold shock samples) or placed directly into the same media at 37° C. For the cold shocked samples, the cells were transferred to the 37° C. incubator after the 2-hour incubation period at 30° C. […] Genomic DNA was extracted from the HSCs at 48 and 72 hours after electroporation and HBB locus-specific PCR reactions were performed. The purified PCR products were analyzed for insertions/deletions (indels) in T7E1 assays and by DNA sequencing of individual clones (PCR product was transformed and subcloned into TOPO-vector, individual colonies picked, and plasmid DNA containing individual PCR products were sequenced).
Gene editing at the HBB locus was then evaluated at 72 hours after electroporation of D10A nickase RNP co-delivered with 2 gRNAs (HBB-8 and HBB-15). Briefly, gDNA was isolated from electroporated CD34^+ cells at 72 hours after electroporation, and PCR amplification of a ˜607 bp fragment of the HBB locus (which captures both of the individual genomic locations that were targeted by gRNAs HBB-8 and HBB-15) was performed. After cleanup of the HBB PCR product with AMPURE beads, insertions/deletions (indels) at the targeted genomic location were evaluated by T7E1 assay and by DNA sequencing.
Human CD34^+ HSCs cells were isolated from freshly obtained human umbilical cord blood by ficoll gradient density centrifugation followed by MACS sorting with mouse anti-human CD34^+ immunomagnetic beads. […] In the afternoon of day 3, 2.2 million CD34^+ cells per sample were suspended in electroporation buffer.
In vitro transcribed capped and tailed guide gRNAs HBB-8 and HBB-15 were added at a 2:1 molar ratio (total gRNA:Cas9 protein) to 10 μg RNP per million cells.
For all samples, the cells were collected from the cartridge and placed at 37° C. for 20 minutes (recovery period).

human CB CD34^+ HSCs [1] = test system: human CB CD34^+ HSCs
Experimental: (§1) For all samples, the cells were collected from the cartridge and placed at 37° C. for 20 minutes (recovery period). […] For the cold shocked samples, the cells were transferred to the 37° C. incubator after the 2-hour incubation period at 30° C.
(§2) For all samples, the cells were collected from the cartridge and placed at 37° C. for 20 minutes (recovery period). For the CB CD34^+ cells that were contacted with 10 μg D10A nickase RNP (per million cells), one sample was transferred to pre-warmed cytokine supplemented Stemspan-SFEM™ media and placed at 30° C. for 2 hours (cold shock recovery) or placed directly into the same media at 37° C. For the cold shocked samples, the cells were transferred to the 37° C. incubator after the 2-hour incubation period at 30° C.
(§3) CB CD34^+ cells were pre-treated with each of these stem cell viability enhancers (Table 19) for 18 hours prior to electroporation with D10A Cas9 RNP, HBB-8 and HBB-15 modified gRNAs, and 5′ and 3′ phosphorothioate-modified ssODN donor template. After electroporation, cells were replated into HSC medium containing these stem cell viability enhancers and cultured for an additional 3 days.

human CB CD34^+ HSCs [2] = experiment: Flow cytometry viability and stem cell phenotype of electroporated cord blood CD34+ cells
Experimental: as §1, §2, §3

[3] = test system: human mobilized peripheral blood CD34^+ HSCs; conditions: Nucleofection with wild type Cas9 and CCR5-U43 gRNA plasmid DNA; short-term 40 nM UM171
[4] = test system: human mobilized peripheral blood CD34^+ HSCs; experiment: Hematopoietic colony forming cell (CFC) assay in Methocult; assay type: cell-based; conditions: wild-type Cas9 and CCR5-U43 gRNA plasmid DNA; 40 nM UM171; two weeks
Excerpt: […]; 345(6203):1509-1512). […] […].
To evaluate maintenance of HSC potency and differentiation potential, two weeks after plating CD34^+ HSCs in CFC assays, hematopoietic activity was quantified based on scoring the HSC progeny by enumerating the total number of hematopoietic colony forming units (CFU) and the frequencies of specific blood cell phenotypes, including: mixed myeloid/erythroid (Granulocyte-erythroid-monocyte macrophage, CFU-GEMM), myeloid (CFU-macrophage (M), granulocyte-macrophage (CFU-GM)) and erythroid (CFU-E) colonies. […].
To evaluate maintenance of HSC potency and differentiation potential, two weeks after plating CD34^+ HSCs in CFC assays, hematopoietic activity was quantified based on scoring the HSC progeny by enumerating the total number of hematopoietic colony forming units (CFU) and the frequencies of specific blood cell phenotypes, including: mixed myeloid/erythroid (Granulocyte-erythroid-monocyte macrophage, CFU-GEMM), myeloid (CFU-macrophage (M), granulocyte-macrophage (CFU-GM)) and erythroid (CFU-E) colonies. […]. […] After Nucleofection™, cells were replated into Stemspan-SFEM supplemented with SCF, TPO, FL and UM171. After overnight incubation, HSCs were replated in Stemspan-SFEM™ plus cytokines alone without UM171.
To evaluate maintenance of HSC potency and differentiation potential, two weeks after plating CD34^+ HSCs in CFC assays, hematopoietic activity was quantified based on scoring the HSC progeny by enumerating the total number of hematopoietic colony forming units (CFU) and the frequencies of specific blood cell phenotypes, including: mixed myeloid/erythroid (Granulocyte-erythroid-monocyte macrophage, CFU-GEMM), myeloid (CFU-macrophage (M), granulocyte-macrophage (CFU-GM)) and erythroid (CFU-E) colonies. CD34^+ HSCs that were Nucleofected™ CD34^+ HSCs maintained CFC potential compared to un-Nucleofected™ HSCs (Table 14).

[5] = Homo sapiens, read-out: % Viability of CD34^+ stem cells

Row | Molecule | % HDR (HBB locus) | % NHEJ (HBB locus) | % Total Gene Editing (HBB locus) | % Viability of CD34^+ stem cells (human CB CD34^+ HSCs [1]) | viability at 0.5 µM (human CB CD34^+ HSCs [2]; [5]) | viability at 0.005 µM (human CB CD34^+ HSCs [2]; [5]) | Fold-change in the number of live CD34^+ HSCs (96 hours) [3] | Number of colony forming units, E (erythroid) [4] | Number of colony forming units, G [4] | Number of colony forming units, GEMM [4] | Number of colony forming units, GM [4] | Number of colony forming units, M [4] | Number of colony forming units, Total [4] | improvement in viability versus electroporated cells without pre-treatment (human CB CD34^+ HSCs [2]; CB CD34+, OxPAPC 30 μg/mL pre-treatment 18 hours) | % Viability of CD34^+ stem cells (human CB CD34^+ HSCs [2]; CB CD34+, enhancer 18 hours before and 3 days after electroporation with D10A Cas9 RNP, HBB-8/HBB-15, Phx ssODN, UM171 35 nM, UM171/SR-1 35/40 nM, rapamycin 5 nM, OxPAPC 30 μg/mL, bafilomycin A1 1 μM, MG132 0.5 μM)
1 | CO/C1=C\C(C)=C\[C@@H](C)[C@@H](O)[C@@H](C)C/C(C)=C/C=C/[C@H](OC)[C@@H]([C@@H](C)[C@@H](O)[C@H](C)[C@@]2(O)C[C@@H](O)[C@H](C)[C@@H](C(C)C)O2)OC1=O [Bafilomycin A1, reference compound] | 0% | 18% | 18% | 23% | – | – | – | – | – | – | – | – | – | – | –
2 | CC(C)C[C@@H](C=O)NC(=O)[C@H](CC(C)C)NC(=O)[C@H](CC(C)C)NC(=O)OCc1ccccc1 [MG132, benzyl (S)-4-methyl-1-((S)-4-methyl-1-((S)-4-methyl-1-oxopentan-2-ylamino)-1-oxopentan-2-ylamino)-1-oxopentan-2-ylcarbamate, reference compound] (Cbz-Leu-Leu-Leu-aldehyde) | 0% | 0% | 0% | – | 19% | – | – | – | – | – | – | – | – | – | –
3 | CO[C@H]1C[C@@H]2CC[C@@H](C)[C@@](O)(O2)C(=O)C(=O)N2CCCC[C@H]2C(=O)O[C@H]([C@H](C)C[C@@H]2CC[C@@H](O)[C@H](OC)C2)CC(=O)[C@H](C)/C=C(\C)[C@@H](O)[C@@H](OC)C(=O)[C@H](C)C[C@H](C)/C=C/C=C/C=C/1C [Rapamycin (sirolimus), Rapamycin, reference compound] | 7% | 46% | 53% | – | – | 52% | – | – | – | – | – | – | – | – | –
4 | Cn1nnc(-c2ccc3c(c2)[nH]c2nc(Cc4ccccc4)nc(N[C@H]4CC[C@H](N)CC4)c23)n1 [UM171, (1r,4r)-N1-(2-benzyl-7-(2-methyl-2H-tetrazol-5-yl)-9H-pyrimido[4,5-b]indol-4-yl)cyclohexane-1,4-diamine] | 0% | 79% | 79% | – | – | – | 1.5 | 92 colony forming units per 1500 CD34^+ HSCs plated | 40 colony forming units per 1500 CD34^+ HSCs plated | 20 colony forming units per 1500 CD34^+ HSCs plated | 32 colony forming units per 1500 CD34^+ HSCs plated | 64 colony forming units per 1500 CD34^+ HSCs plated | 228 colony forming units per 1500 CD34^+ HSCs plated | – | –
5 | oxidized 1-palmitoyl-2-arachidonyl-sn-glycero-3-phosphorylcholine [OxPAPC, reference compound] | 7% | 71% | 78% | – | – | – | – | – | – | – | – | – | – | 20% | 64%

Source: patent US11390884B2, “Optimized CRISPR/cas9 systems and methods for gene editing in stem cells” (Editas Medicine, Inc., priority 2015, dated 2022)
